Assay results as given in PMC4000009, “Ardisia crispa roots inhibit cyclooxygenase and suppress angiogenesis” (BMC Complementary and Alternative Medicine, 2014).

What was measured:
COX-1 = target: T1, COX-1 (Ovis aries, UniProt P05979); assay: Colorimetric COX (ovine) inhibitor screening assay, COX-1; type: biochemical; settings: n = 3
T1 construct: purchased Cayman 760111
T1 sequence (P05979 25-600): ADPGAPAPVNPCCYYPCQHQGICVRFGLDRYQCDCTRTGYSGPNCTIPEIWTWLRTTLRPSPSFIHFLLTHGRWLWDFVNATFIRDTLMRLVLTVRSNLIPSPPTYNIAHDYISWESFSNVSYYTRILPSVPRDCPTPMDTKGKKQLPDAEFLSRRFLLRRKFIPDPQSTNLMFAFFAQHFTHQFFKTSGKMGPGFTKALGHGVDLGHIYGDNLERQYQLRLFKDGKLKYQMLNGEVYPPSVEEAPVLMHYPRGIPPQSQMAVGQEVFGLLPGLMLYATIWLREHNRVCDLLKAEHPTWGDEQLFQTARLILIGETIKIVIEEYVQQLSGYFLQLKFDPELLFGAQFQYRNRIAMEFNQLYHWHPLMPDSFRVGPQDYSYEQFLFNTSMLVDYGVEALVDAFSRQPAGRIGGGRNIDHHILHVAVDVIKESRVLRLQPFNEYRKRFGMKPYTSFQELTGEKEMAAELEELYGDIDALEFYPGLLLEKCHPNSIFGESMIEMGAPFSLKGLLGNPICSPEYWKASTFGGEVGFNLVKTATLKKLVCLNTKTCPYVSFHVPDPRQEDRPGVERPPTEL
Description: (§1) Cyclooxygenase activity assay was performed according to Yang et al., with slight modification. […] The assay was conducted by monitoring the appearance of oxidized N, N, N’, N’- tetramethyl-p-phenediamine (TMPD) at […]. […] The plate was shaken for a few seconds and incubated for 5 min at 25°C. 20 μl of the colorimetric substrate solution (TMPD) was added to all of the wells. 20 μl of arachidonic acid was added to all the wells. The plate was shaken for a few seconds and incubated for 5 min at 25°C. The absorbance was measured at 590 nm using a microplate reader. Average absorbance was calculated for all the samples (n = 3) in order to determine the percentage of inhibition. The calculation of inhibitory percentage is as portrayed below:
(§2) %inhibition=100%initialactivity‒inhibitorwells/100%initialactivity×100
(§3) In mouse sponge implantation assay, statistical analysis was performed using SPSS version 16. One-way Analysis of Variance (ANOVA) with post-hoc test of Least Significant Difference (LSD) were utilised with P < 0.05 was considered to be statistically significant. The results were reported as mean ± SEM. For in vitro studies, average of the results obtained was determined in order to construct a graph, whereby IC50 of each groups were identified, respectively. IC50 was calculated using GraphPad Prism 5 software. Data were reported as mean ± SEM.

COX-2 = target: T2, COX-2 (Ovis aries, UniProt P79208); assay: Colorimetric COX (ovine) inhibitor screening assay, COX-2; type: biochemical; settings: read-out: Percentage of COX inhibition (%) COX-2
T2 construct: purchased Cayman 760111
T2 sequence (P79208 17-603): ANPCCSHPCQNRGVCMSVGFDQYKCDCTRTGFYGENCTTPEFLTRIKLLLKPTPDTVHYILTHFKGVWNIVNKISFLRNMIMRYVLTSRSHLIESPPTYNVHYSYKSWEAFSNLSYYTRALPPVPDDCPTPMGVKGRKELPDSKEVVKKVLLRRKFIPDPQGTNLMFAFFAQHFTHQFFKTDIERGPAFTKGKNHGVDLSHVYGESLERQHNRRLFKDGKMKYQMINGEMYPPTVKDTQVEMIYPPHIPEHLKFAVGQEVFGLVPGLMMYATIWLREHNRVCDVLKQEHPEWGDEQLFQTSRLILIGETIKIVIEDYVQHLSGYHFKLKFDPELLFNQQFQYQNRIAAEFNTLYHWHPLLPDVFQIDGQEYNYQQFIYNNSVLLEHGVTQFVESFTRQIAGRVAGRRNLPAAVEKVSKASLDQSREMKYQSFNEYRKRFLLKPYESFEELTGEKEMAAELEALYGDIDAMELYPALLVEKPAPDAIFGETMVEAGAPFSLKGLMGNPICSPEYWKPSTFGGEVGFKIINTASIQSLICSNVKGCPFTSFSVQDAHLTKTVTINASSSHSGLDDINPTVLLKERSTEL
Description: as §1, §2, §3

[1] = target: T3, Soybean lipoxygenase type I-B (Glycine max, UniProt P08170); assay: Soy lipoxygenase inhibitory assay; type: biochemical
T3 construct: purchased Sigma Aldrich
T3 sequence (P08170 1-839): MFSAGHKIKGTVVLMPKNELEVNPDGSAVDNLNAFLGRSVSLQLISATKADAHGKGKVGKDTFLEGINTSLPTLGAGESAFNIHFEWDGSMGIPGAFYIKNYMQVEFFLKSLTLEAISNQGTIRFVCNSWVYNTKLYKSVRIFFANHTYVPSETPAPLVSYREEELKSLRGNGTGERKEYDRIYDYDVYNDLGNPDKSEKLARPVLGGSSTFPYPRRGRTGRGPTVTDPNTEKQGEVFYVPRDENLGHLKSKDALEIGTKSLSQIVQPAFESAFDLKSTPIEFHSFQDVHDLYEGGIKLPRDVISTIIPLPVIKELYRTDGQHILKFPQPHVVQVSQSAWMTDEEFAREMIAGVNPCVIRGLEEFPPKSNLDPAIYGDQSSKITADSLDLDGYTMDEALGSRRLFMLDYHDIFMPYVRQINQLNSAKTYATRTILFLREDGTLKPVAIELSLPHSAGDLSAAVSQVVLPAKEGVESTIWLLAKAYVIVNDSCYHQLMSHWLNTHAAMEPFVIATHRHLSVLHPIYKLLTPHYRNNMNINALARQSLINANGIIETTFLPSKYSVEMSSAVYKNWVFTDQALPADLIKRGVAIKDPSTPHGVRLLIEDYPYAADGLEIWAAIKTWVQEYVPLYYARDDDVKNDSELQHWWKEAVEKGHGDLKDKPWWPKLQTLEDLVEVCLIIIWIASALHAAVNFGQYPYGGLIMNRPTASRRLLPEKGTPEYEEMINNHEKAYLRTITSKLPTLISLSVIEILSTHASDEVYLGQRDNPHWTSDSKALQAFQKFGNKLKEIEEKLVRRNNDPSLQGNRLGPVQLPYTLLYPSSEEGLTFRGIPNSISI
Description: Soy lipoxygenase inhibitory assay was performed according to the method proposed by Azhar-Ul-Haq et al.. Rutin was used as positive control. 160 μl of 100 mM sodium phosphate buffer (pH8.0), 10 μl of ACRH and QRF were dissolved in ethanol in different concentrations (200 μg/mL, 100 μg/mL, 50 μg/mL, 25 μg/mL, and 12.5 μg/mL) and 20 μl of lipoxygenase solution were mixed in the well and incubated for 10 mins at room temperature. The reaction was then initiated by adding 10 μl of linoleic solution and the absorbance was determined at 234 nm after 6 minutes. All concentrations were performed in triplicate. The IC50 value was then calculated.
as §3

[2] = tested on: VEGF-induced blood vessel formation; assay: Mouse sponge implantation assay (VEGF-impregnated gelatin sponge, mean vascular density); type: in vivo; settings: 100 ng treatment in VEGF sponge, 14 days; relative to VEGF group
Description: Prior to experimentation, absorbable gelatin sponge was cut (5 mm × 8 mm) and hydrated in sterile PBS overnight at 4°C. […] The sponges were allowed to solidify at room temperature for one hour before commencement of the experiment. Mice were anesthetized with Avertin (10 mL/kg) prior to experimentation. Hardened gel piece was inserted into incised subcutaneous pocket created laterally. The animals were allowed to recuperate for 14 days. After that, the animals were euthanized and the gel piece was harvested and rinsed with normal saline.
The sponge samples were fixed in 10% formalin (v/v) for 7 days and subjected to histopathological analysis. The number of vessels was counted in 15 consecutive fields using a 20X objective and the mean MVD was calculated [19].
In mouse sponge implantation assay, statistical analysis was performed using SPSS version 16. One-way Analysis of Variance (ANOVA) with post-hoc test of Least Significant Difference (LSD) were utilised with P < 0.05 was considered to be statistically significant. The results were reported as mean ± SEM. […] Data were reported as mean ± SEM.

Row | Structure (SMILES) | Percentage of COX inhibition (%) COX-1 (COX-1; 12.5 μg/ml) [%] | Percentage of COX inhibition (%) COX-1 (COX-1; 25 μg/ml) [%] | Percentage of COX inhibition (%) COX-1 (COX-1; 50 μg/ml) [%] | Percentage of COX inhibition (%) COX-1 (COX-1; 100 μg/ml) [%] | Percentage of COX inhibition (%) COX-1 (COX-1; 200 μg/ml) [%] | inhibition at 12.5 µg/mL (COX-2) [%] | inhibition at 25 µg/mL (COX-2) [%] | inhibition at 50 µg/mL (COX-2) [%] | inhibition at 100 µg/mL (COX-2) [%] | inhibition at 200 µg/mL (COX-2) [%] | IC50 [1] [µM] | % inhibition (of MVD) [2] [%]
1 | CC(=O)Oc1ccccc1C(=O)O [Aspirin] | 27.778 ± 0.505 | 36.027 ± 1.347 | 37.879 ± 0.842 | 40.067 ± 1.347 | 46.465 ± 0.505 | 33.9 ± 1.07 | 51.38 ± 0.154 | 54.29 ± 0.307 | 59.05 ± 0.153 | 62.42 ± 0.154 | 763 | –
2 | C[C@@H]1O[C@@H](OC[C@H]2O[C@@H](Oc3c(-c4ccc(O)c(O)c4)oc4cc(O)cc(O)c4c3=O)[C@H](O)[C@@H](O)[C@@H]2O)[C@H](O)[C@H](O)[C@H]1O [Rutin] | – | – | – | – | – | – | – | – | – | – | 72.7 | –
3 | CC1(C)Cc2c(-c3ccccc3)c(-c3ccc(Cl)cc3)c(CC(=O)O)n2C1 [licofelone] | – | – | – | – | – | – | – | – | – | – | – | 67.14
